Reference: US20260198495A1, “BINARY INSECTICIDE COMPOSITION AND USE THEREOF” (SHENYANG SINOCHEM AGROCHEMICALS R & D CO., LTD., priority 2022, published 2026)

Key:
Type in all cases: in vivo
[1] = tested on: 3rd-instar larvae of Spodoptera exigua Hübner; test: Joint toxicity of I-72 + emamectin benzoate, leaf-disk dipping, Example 9, Table 9; settings: Spodoptera exigua, cabbage leaf-disk dipping, 72 h, A = compound I-72, B = emamectin benzoate, read-out: LC50
Source text: Test subject: 3rd-instar larvae of Spodoptera exigua Hübner, a sensitive strain reared indoors.
Experimental method: the dipping method was adopted. The cabbage leaves cultivated in the greenhouse were taken, the surface wax layer was removed, and leaf disks with a diameter of 3 cm were made with a puncher. The leaf disks were dipped in the prepared pesticide solution for 10 s, and then put into a 9-cm-diameter Petri dish lined with filter paper. After natural air-drying in the shade, the standard test insects were introduced, with 10 insects placed in each dish and 3 replicates performed. The treated test insects were placed in an observation room under certain conditions. The reaction of the test insects was regularly observed, and the number of dead and live insects was investigated 72 h later.
The test conditions, the preparation of the pesticide solution and the evaluation method were the same as those in Example 1.

[2] = tested on: 3rd-instar larvae of Plutella xylostella; test: Joint toxicity of I-72 + chlorpyrifos, leaf-disk dipping, Example 16, Table 16; settings: 3rd-instar larvae, cabbage leaf-disk dipping, 72 h, A = compound I-72, B = chlorpyrifos, read-out: LC50
Experimental: Test target: 3rd-instar larvae of Plutella xylostella.
(§1) Preparation of the pesticide solution: according to different test requirements, the test samples were accurately weighed respectively with an electronic analytical balance. The technical pesticides were dissolved in acetone, and then diluted with 0.1% Tween 80 water into a series of pesticide solutions with a certain concentration gradient according to the experimental design dosage.
(§2) Experimental method: first, fresh cabbage leaves cultivated in the greenhouse were selected. The cabbage leaves were made into circular leaf disks with a diameter of 3 cm using a puncher and dipped in the prepared pesticide solution for 10 s in the order from low dosage to high dosage according to the experimental design. After natural air-drying in the shade, they were placed in a 9-cm-diameter Petri dish with filter paper, and uniform and healthy test insects were introduced, with 10 insects for each treatment and 3 replicates for each treatment. In addition, a blank control was set up.
(§3) The treated test materials were placed in an observation room, and the temperature, humidity and illumination of the observation room could be adjusted as needed. […] Then, the co-toxicity coefficient of each ratio was calculated using the Sun Y-P method to evaluate the mixing effect (the same as in Example 1).

[3] = tested on: Bemisia tabaci (Gennadius) nymphs; test: Joint toxicity of I-72 + bifenthrin, Example 40, Table 40; settings: A = compound I-72, B = bifenthrin, cotton leaf-disk spraying, 96 hours, read-out: LC50
Experimental: Test target: Bemisia tabaci (Gennadius) nymphs, a sensitive strain reared indoors.
as §1
Experimental method: first, cotton leaves with neat and consistent Bemisia tabaci (Gennadius) nymphs were selected and made into leaf disks, with about 20 insects on each leaf disk. Then, they were evenly sprayed with the pesticide solution in the order from low dosage to high dosage according to the experimental design, with 1.5 mL for each leaf and 3 replicates for each treatment. In addition, a blank control was set up.
as §3, with “needed. The number of dead and live insects was investigated 96 hours later.” for “needed.”

[4] = tested on: 2nd-instar larvae of Spodoptera exigua Hübner; test: Joint toxicity of I-72 + lufenuron, Example 54, Table 54; settings: foliar, A = compound I-72, B = lufenuron, cabbage leaf dipping, 72 hours, read-out: LC50
Experimental: Test target: 2nd-instar larvae of Spodoptera exigua Hübner.
as §1
as §2, with “first,” for “first, fresh cabbage leaves cultivated in the greenhouse were selected. The”, “selected” for “made into circular leaf disks with a diameter of 3 cm using a puncher”
as §3, with “needed. The number of dead and live insects was investigated 72 hours later.” for “needed.”

[5] = tested on: Myzus persicae (Sulzer) nymphs; test: Joint toxicity of I-72 + cyantraniliprole, Example 59, Table 59; settings: A = compound I-72, B = cyantraniliprole, cabbage leaf spraying, 48 hours, read-out: LC50
Experimental: Test target: Myzus persicae (Sulzer) nymphs, a sensitive strain reared indoors.
as §1
Experimental method: first, cabbage leaves with uniform and consistent Myzus persicae (Sulzer) were selected, with about 30-40 insects on each leaf. Then, they were evenly sprayed with the pesticide solution in the order from low dosage to high dosage according to the experimental design, with 1.5 mL of the solution for each leaf and 3 replicates for each treatment. In addition, a blank control was set up.
as §3, with “needed. The number of dead and live insects was investigated 48 hours later.” for “needed.”

[6] = tested on: Unaspis yanonensis Kuwana nymphs; test: Joint toxicity of I-72 + afidopyropen, Example 76, Table 76; settings: Unaspis yanonensis, foliar; A = compound I-72, B = afidopyropen; citrus leaf dipping; 120 hours; read-out: LC50
Experimental: Test target: Unaspis yanonensis Kuwana nymphs.
as §1
Experimental method: the activity of the mixture against Unaspis yanonensis Kuwana nymphs on citrus was determined by adopting the dipping method. First, the collected citrus leaves with Unaspis yanonensis Kuwana nymphs were treated with the pesticide solution in the order from low dosage to high dosage according to the experimental design. After air-drying, the petioles were kept moist with degreased cotton, and then the leaves were placed in a Petri dish, with 3 replicates for each treatment. In addition, a blank control was set up.
as §3, with “needed. The number of dead and live insects was investigated 120 hours later.” for “needed.”

**Q.** What does the source list for CN(C(=O)c1ccc2c(c1)OC(F)(F)O2)c1cccc(C(=O)Nc2c(Br)cc(C(F)(C(F)(F)F)C(F)(F)F)cc2OC(F)F)c1F [Compound I-72]?
**A.** LC50 [1]: 0.241 µg/mL; LC50 [2]: 0.09 µg/mL; LC50 [3]: 10.9 µg/mL; LC50 [4]: 0.273 µg/mL; LC50 [5]: 8.14 µg/mL; LC50 [6]: 75.4 µg/mL
